Source: patent publication US20170037471A1, “METHODS FOR DIAGNOSING & TREATING COPPER-DEPENDENT DISEASES” (Duke University, priority 2013, published 2017)
Residues, ends and D or L forms follow the SMILES beside them. *: point of attachment. Cbz = O=C(OCc1ccccc1)*; CHN2 = [N-]=[N+]=C*; tBu = CC(C)(C)*

Tests used:
Ctr1 cleavage = Ctr1 cleavage in wild type and Cathepsin L-/- mouse embryonic fibroblasts, anti-Ctr1 immunoblot; format: cell-based; conditions: 10 μM, 16 hours, immunoblot (FIG. 7)
Protocol: Mouse embryonic fibroblasts from wild type and CatL^−/− littermates were cultured in medium supplemented with 10% fetal bovine serum and treated with DMSO or 10 μM of the cell permeable cysteine protease inhibitor E64d and harvested 16 hours later. Total proteins were isolated from the cells by homogenizing cells in ice cold PBS supplemented with 1% Triton-X, 0.1% SDS, and 1 mM EDTA. Cell debris was removed by centrifugation and the total amounts of soluble proteins were quantified in each sample. Equal amounts of proteins were separated on tris/glycine gradient gel, transferred to nitrocellulose membrane and blocked with 5% non-fat milk in Tris buffered saline supplemented with 0.05% Tween (TBST) for 1 h. Membranes were incubated with anti-Ctr1 antibody (1:1000) followed by anti-rabbit-HRP coupled antibody (1:5000) and bands detected by enhanced chemiluminescent substrate. Anti-Tubulin antibody was used as loading control.
Lanes 1 and 2 are duplicate samples from untreated wild type cells and lanes 5 and 6 are duplicate samples from untreated Cathepsin L knock out cells.

[1] = tested on: human Ctr1 protein containing the proline to alanine substitution at position 25 (Ctr1^P25A); test: Ctr1^P25A cleavage protection in stably transfected Ctr1-/- mouse embryonic fibroblasts, anti-Ctr1 immunoblot; format: cell-based; conditions: Ctr1-/- MEFs expressing human Ctr1^P25A, 10 μM, 16 hours, immunoblot (FIG. 8)
Protocol: Mouse embryonic fibroblasts from Ctr1^−/− embryos were stably transfected with plasmids expressing either the wild type human Ctr1 protein or the human Ctr1 protein containing the proline to alanine substitution at position 25 (Ctr1^P25A). Cells were cultured in medium supplemented with 20% fetal bovine serum and treated with DMSO or 10 μM cysteine protease […], Z-FY(t-Bu)-DMK and harvested 16 hours later. Total proteins were isolated from the cells by homogenizing cells in ice cold PBS supplemented with 1% Triton-X, 0.1% SDS, and 1 mM EDTA. Cell debris was removed by centrifugation and the total amounts of soluble proteins were quantified in each sample. Equal amounts of proteins were separated on tris/glycine gradient gel, transferred to nitrocellulose membrane and blocked with 5% non-fat milk in Tris buffered saline supplemented with 0.05% Tween (TBST) for 1 h. Membranes were incubated with anti-Ctr1 antibody (1:1000) followed by anti-rabbit-HRP coupled antibody (1:5000) and bands detected by enhanced chemiluminescent substrate. Anti-Actin antibody was used as loading control.

| Compound | levels of cleaved Ctr1 (Ctr1 cleavage; Cathepsin L knock out MEFs) | levels of cleaved Ctr1 (Ctr1 cleavage; wild type MEFs) | reduction in full length form of Ctr1^P25A [1] |
| --- | --- | --- | --- |
| CCOC(=O)[C@H]1O[C@@H]1C(=O)N[C@@H](CC(C)C)C(=O)NCCC(C)C (relative stereo) [E64d, (2S,3S)-trans-Epoxysuccinyl-L-leucylamido-3-methylbutane ethyl ester] | not Cathepsin L knock out cells | dramatic reduction in the levels of cleaved Ctr1 | – |
| CC(C)(C)Oc1ccc(CC(NC(=O)C(Cc2ccccc2)NC(=O)OCc2ccccc2)C(=O)C=[N+]=[N-])cc1 (stereo not drawn) [Z-FY(t-Bu)-DMK, benzyl (1-((1-(4-(tert-butoxy)phenyl)-4-diazo-3-oxobutan-2-yl)amino)-1-oxo-3-phenylpropan-2-yl)carbamate] (Cbz-Phe-Tyr(tBu)-CHN2; configuration not given here) | – | – | can be alleviated by treatment with Cathepsin L inhibitors |
